Measured values: article PMC3410885, “6-Arylpyrido[2,3-d]pyrimidines as Novel ATP-Competitive Inhibitors of Bacterial D-Alanine:D-Alanine Ligase” (PLoS ONE, 2012)
Values after ≈ are worked out from the molar mass of the structure shown.

Experiments:
E. coli DdlB [1] = target: T1, E. coli DdlB (Escherichia coli, UniProt P07862); experiment: Colorimetric malachite green inhibition assay of DdlB; format: biochemical; settings: for IC50: malachite green assay, 700 μM D-Ala, 500 μM ATP, 37°C, 20 min, read-out: inhibitory activity on DdlB: IC50; for Ki: against ATP (50-500 μM), D-Ala 10 mM, competitive model; for mode of inhibition of DdlB: kinetic analysis at different inhibitor and ATP concentrations
T1 construct: polyhistidine (His) tag (N); made in house; host or cells: E. coli BL21(λDE3), vector pQE-30 UA (Qiagen)
Procedure: All of the synthesized 6-arylpyrido[2,3-d]pyrimidines 11–36 were assayed for in vitro inhibitory activity on E. coli DdlB by detecting orthophosphate generated during the enzymatic reaction using a Malachite green assay.
Inhibition of DdlB was measured at different inhibitor and ATP concentrations in order to determine Ki values and the mode-of-action of both compounds.
The target compounds were tested for their ability to inhibit the D-Ala-adding activity of DdlB ligase with the colorimetric malachite green method in which orthophosphate generated during the reaction is measured. Each compound was tested in duplicate at 100, 250 or 500 μM in a mixture, final volume 50 μL, containing 50 mM Hepes (pH 8.0), 5 mM MgCl2, 10 mM (NH4)2SO4, 10 mM KCl, 700 μM D-Ala, 500 μM ATP, purified His-tagged DdlB (diluted in 50 mM Hepes (pH 7.2) and 1 mM DTT) and the test compound dissolved in DMSO. The final concentration of DMSO was 5% (v/v). The reaction mixture was incubated at 37°C for 20 min, then quenched with 100 μL of Biomol reagent and absorbance at 650 nm was measured after 5 min. To exclude possible promiscuous inhibitors, all compounds were tested in the presence of Triton-114 (0.005%). Residual activities were calculated relative to control assays without the compounds and with DMSO.

DdlB = target: T2, DdlB (Escherichia coli, UniProt P07862); experiment: Surface plasmon resonance binding to immobilised DdlB; settings: steady-state affinity model; 25°C; 50 mM Hepes, 150 mM NaCl, 5% DMSO; read-out: KD (SPR)
T2 construct: polyhistidine (His) tag (N); made in house; host or cells: E. coli BL21(λDE3), vector pQE-30 UA (Qiagen)
Procedure: The binding of the compounds 11, 13, 14, 24, 27, 33, and 35 to the target enzyme was confirmed using surface plasmon resonance (SPR) (Figure 10). Experiments were performed at conditions that enable long term stability of the enzyme. […] The enzyme was covalently attached to the surface of a sensor chip CM5 and compounds were titrated over the surface. The binding of all the compounds was characterised by fast association and dissociation rates. Equilibrium affinity constants, estimated from the steady-state binding levels are in agreement with enzymatic studies and ITC. In addition, the binding of other compounds was tested but insufficient solubility at higher concentrations of analytes in the running buffer precluded analysis.
Figure 10 SPR analysis of compounds binding to DdlB. Different concentrations of compounds were tested for the binding (left panels in all cases). The binding curves (right panels) were generated by ploting steady-state response levels, i.e. at the end of the association phase, vs concentration of the injected compound. For each compound 3–5 independent titrations were performed.
The binding constants were obtained by using a Biacore T100 (Biacore, GE Healthcare, USA). […] Two 1 min injections of 50 μg/ml DdlB diluted in 10 mM Na-acetate, pH 4.0 were applied on the second flow cell. The first flow cell was left unmodified and served as a control for non-specific binding of tested compounds. The remaining active groups on the surface of both flow cells were deactivated with a 7-min injection of ethanolamine. The level of immobilized enzyme was around 10000 response units.
Each analyte was titrated, with 3 or 4 repetitions, using different concentrations according to their solubility in running buffer (50 mM Hepes, 150 mM NaCl, 5% DMSO, pH 7.4), usually from 0,781 μM to 500 μM. One concentration was repeated at the end of the assay in each dilution series, in order to check the surface stability and repeatability. The association lasted 60 seconds at a flow-rate 30 μl/min. No regeneration was needed. All experiments were performed at 25°C. Sensorgrams were double referenced by subtracting the signal obtained in the empty flow cell and the injection of the buffer. The steady-state response levels were fitted using the Steady State Affinity model in Biacore T100 Evaluation software.

E. coli DdlB [2] = target: T1, E. coli DdlB; experiment: Isothermal titration calorimetry of binding to DdlB; settings: ITC, 37°C; for entropy contribution of binding ([drawing 6]) / standard Gibbs free energy of binding ([drawing 5]): calculated from the fitted parameters
Procedure: Two of the compounds, 14 and 33, were also tested by ITC to obtain thermodynamic parameters of the binding into DdlB active site. Heat changes upon binding of the ligand on the E. coli DdlB were measured directly, corrected for the heats of dilution, and the model function was fitted to the experimental data points (see the Experimental section).
The value of critical parameter for obtaining highly reliable thermodynamic data ( [drawing 10] ) was not optimal due to low inhibitors solubility and quite low binding constants. Nevertheless, the conclusions below can be drawn. Experiments for the two compounds result in similar binding constants (K b≈10^5 M^−1) (Table 1), but the driving forces for the binding differ (Figure 11). The binding of compound 14 to DdlB results from favourable enthalpy and entropy contributions. […] But still, compensation of the opposing effects at 33 results in similar [drawing 11] (and binding constant) as at 14, although there are less specific interactions between 33 and the protein as at 14.
The heat changes upon binding were measured using a VP-ITC microcalorimeter from MicroCal, LLC (Northampton, MA, USA). Purified DdlB stock solution in 20% glycerol was dialysed for 40 hours at 4°C (50 mM Hepes, pH = 8.0, 10 mM KCl, 10 mM (NH4)2SO4, 5 mM MgCl2, and 0.01% Triton X-114) prior to titration. The ligand solutions were prepared by adding a stock solution of 14 or 33 in DMSO to the dialysis buffer to obtain final 50 μM solution of the DdlB inhibitor in 5% DMSO. Successive aliquots (11–31 μl) of the degassed ligand solution were injected at 5–8 min intervals by a motor driven syringe (300 μl) into the degassed DdlB solution (approximately 2 μM, 5% DMSO) in the calorimeter cell (V = 1.386 ml) with constant stirring (300 rpm) at 37°C. At the end of experiment the final ratio of ligand:enzyme in the titration cell was about 6∶1. The titration data was further corrected for the heat changes observed in the control titration of ligand solution into the dialysis buffer, 5% DMSO, alone. The experimental data was analysed using the Origin 7.0 software provided by MicroCal and fitted by a home written program, based on the non-linear Levenberg–Marquardt χ^2 regression procedure, assuming a single binding site model (two parameter fit): [drawing 12] [drawing 13] where P, L, and PL represent DdlB, ligand, and DdlB-ligand complex, ΔH and [drawing 14] are the measured enthalpy upon aliquot addition and the standard enthalpy change of the binding reaction, [drawing 15] and [drawing 16] represent the total number of moles of ligand and DdlB-ligand complex in the titration cell, r is the bound ligand to total protein concentration,[P]tot, ratio and K b is the binding constant. A detailed explanation of the applied model equation is given in the Information S2.

[3] = test system: E. coli strains (1411, AB734, SM1411, ES100); experiment: Antibacterial activity stated for the E. coli strains together; format: cell-based; settings: Escherichia coli; read-out: MICs against all strains
Procedure: (§1) Selected DdlB inhibitors were tested for their antibacterial activity against two E. coli strains E. coli 1411 and E. coli AB734 (Table 2). […] Additionally, growth inhibition of efflux pump-deficient strains SM1411 (acrAB deficient derivative of 1411) and ES100 (tolC deficient derivative of AB734) was measured, and MICs were repeated for each strain in the presence of polymyxin B nonapeptide (PMBN) to assess the impact of outer-membrane permeability on antimicrobial activity.
(§2) Minimum inhibitory concentrations (MICs) were determined by broth microdilution against E. coli 1411, SM1411 (acrAB deficient derivative of 1411), AB734 and ES100 (tolC deficient derivative of AB734) according to CLSI guidelines. MICs were repeated for each strain in the presence of polymyxin B nonapeptide (4 μg/ml) to assess the impact of outer-membrane permeability on antimicrobial activity.

[4] = test system: SM1411 (acrAB deficient derivative of 1411); experiment: MIC by broth microdilution, SM1411; format: cell-based, E. coli; settings: for MIC: Escherichia coli, read-out: MIC SM1411 (acrAB); for MIC SM1411 +PMBN: with polymyxin B nonapeptide (4 μg/ml)
Procedure: as §1, §2

E. coli AB734 = experiment: MIC by broth microdilution, E. coli AB734; format: cell-based
Procedure: as §1, §2

[5] = test system: ES100 (tolC deficient derivative of AB734); experiment: MIC by broth microdilution, ES100; format: cell-based, E. coli; settings: for MIC: Escherichia coli, read-out: MIC ES100 (tolC); for MIC ES100 +PMBN: with polymyxin B nonapeptide (4 μg/ml)
Procedure: as §1, §2

E. coli 1411 = experiment: MIC by broth microdilution, E. coli 1411; format: cell-based
Procedure: as §1, §2

E. coli BC enzyme = settings: read-out: IC50 for the E. coli BC enzyme; cited from earlier work
Ddl = target: Ddl; design: method as in PMID 14479178; settings: read-out: Ki of D-cycloserine on Ddl; cited from earlier work
[6] = with polymyxin B nonapeptide (4 μg/ml)

Nc1ncc2cc(-c3ccccc3)c(N)nc2n1 [Compound 11, 6-phenylpyrido[2,3-d]pyrimidine-2,7-diamine]
melting point: > 300 °C | IC50 (E. coli DdlB [1]): 1140 µM | Kd (DdlB): 150 ± 33.1 µM

COc1cc(OC)cc(-c2cc3cnc(N)nc3nc2NC(=O)NC(C)(C)C)c1 [Compound 14, 1-(2-amino-6-(3,5-dimethoxyphenyl)pyrido[2,3-d]pyrimidin-7-yl)-3-tert-butylurea]
Kd (E. coli DdlB [2]): 10 µM | standard enthalpy of binding ([drawing 4]) (E. coli DdlB [2]): -4 kcal/mol | entropy contribution of binding ([drawing 6]) (E. coli DdlB [2]): 3 kcal/mol | standard Gibbs free energy of binding ([drawing 5]) (E. coli DdlB [2]): -7 kcal/mol | Ki (E. coli DdlB [1]): 31 ± 4 µM | mode of inhibition of DdlB (E. coli DdlB [1]): ATP competitive inhibitors | IC50 (E. coli DdlB [1]): 340 µM | fold greater DdlB inhibitory potency than corresponding diamine 13 (E. coli DdlB [1]; ratio of IC50 values, 14 against 13): 2.6 fold | Kd (DdlB): 19 ± 6.6 µM | MIC [3]: > 256 µg/mL

Nc1ncc2cc(-c3c(F)cccc3F)c(N)nc2n1 [Compound 24, 6-(2,6-difluorophenyl)pyrido[2,3-d]pyrimidine-2,7-diamine]
melting point: > 300 °C | MIC [4]: 64 µg/mL (≈ 234 µM) | MIC SM1411 +PMBN [4]: 8 µg/mL (≈ 29.3 µM) | IC50 (E. coli DdlB [1]): 1110 µM | Kd (DdlB): 103 ± 7.8 µM | MIC (E. coli AB734; Escherichia coli, AB734, without PMBN, read-out: MIC AB734): 64 µg/mL (≈ 234 µM) | MIC AB734 +PMBN (E. coli AB734; [6]): 16 µg/mL (≈ 58.6 µM) | MIC AB734 (E. coli AB734; without PMBN): 64 µg/mL (≈ 234 µM) | MIC [5]: 16 µg/mL (≈ 58.6 µM) | MIC ES100 +PMBN [5]: 8 µg/mL (≈ 29.3 µM) | MIC (E. coli 1411; Escherichia coli, 1411, read-out: MIC 1411): 64 µg/mL (≈ 234 µM) | MIC 1411 +PMBN (E. coli 1411; [6]): 16 µg/mL (≈ 58.6 µM) | MIC 1411 (E. coli 1411; without PMBN): 64 µg/mL (≈ 234 µM)

CC(C)(C)NC(=O)Nc1nc2nc(N)ncc2cc1-c1c(Cl)cccc1Cl [Compound 27, 1-(2-amino-6-(2,6-dichlorophenyl)pyrido[2,3-d]pyrimidin-7-yl)-3-tert-butylurea]
IC50 (E. coli DdlB [1]): 655 µM | Kd (DdlB): 16.7 ± 6.5 µM | MIC [3]: > 256 µg/mL

Nc1ncc2cc(-c3c(Br)cccc3Br)c(N)nc2n1 [Compound 33, 6-(2,6-dibromophenyl)pyrido[2,3-d]pyrimidine-2,7-diamine]
Kd (E. coli DdlB [2]): 10 µM | standard enthalpy of binding ([drawing 4]) (E. coli DdlB [2]): 4 kcal/mol | entropy contribution of binding ([drawing 6]) (E. coli DdlB [2]): 11 kcal/mol | standard Gibbs free energy of binding ([drawing 5]) (E. coli DdlB [2]): -7 kcal/mol | MIC [4]: 1 µg/mL (≈ 2.53 µM) | MIC SM1411 +PMBN [4]: 0,25 μg/ml | Ki (E. coli DdlB [1]): 38 ± 5 µM | mode of inhibition of DdlB (E. coli DdlB [1]): ATP competitive inhibitors | IC50 (E. coli DdlB [1]): 453 µM | Kd (DdlB): 161 ± 73.7 µM | IC50 (E. coli BC enzyme): < 0.005 µM | MIC [5]: 0.5 µg/mL (≈ 1.27 µM) | MIC ES100 +PMBN [5]: 0,125 μg/ml

Nc1ncc2cc(-c3ccc4c(c3)OCO4)c(N)nc2n1 [Compound 35, 6-(benzo[d][1,3]dioxol-5-yl)pyrido[2,3-d]pyrimidine-2,7-diamine]
melting point: > 300 °C | IC50 (E. coli DdlB [1]): 1110 µM | Kd (DdlB): 104 ± 36.2 µM | MIC [3]: > 256 µg/mL

N[C@@H]1CON=C1O [D-cycloserine, D-4-amino-3-isoxazolidone, reference compound]
Ki (Ddl): 27 µM | IC50 (E. coli DdlB [1]): 296 µM
